Test results: patent publication US4963569A, “L-654,040, antibacterial agent” (Merck & Co., Inc., priority 1989, dated 1990)
“Also recorded” adds a separate entry of the source.

Experiments:
[1] = Solubility in water; assay type: physicochemical; details: solutions in water for dosing
[2] = system: Pasteurella multocida (4678); test: In vivo efficacy in infected mice
[3] = system: Bordetella bronchiseptica (3771); test: In vivo efficacy in infected mice
[4] = system: Pasteurella multocida (4678); test: Combined therapy with erythromycin in infected mice; details: L-654,040 combined with erythromycin, intraperitoneal
[5] = system: Staph. aureus 2865; test: Agar dilution MIC, antagonist-free medium (Table II); details: Staphylococcus aureus 2865, agar dilution
[6] = system: E. coli DC2 4353; test: as above; details: E. coli permeability mutant
[7] = 160 mg/kg×2 intraperitoneal, 0 and 6 hours after infection

For `C[C@H](CNC(=O)[C@H]1N=C(c2cccc(O)c2O)O[C@@H]1C)C(=O)N[C@@H]1CCCN(O)C1=O` [L-654,040, 2-(2,3-dihydroxyphenyl)-4,5-dihydro-N-[3-[(1-hydroxy-2-oxo-3(R)-piperidinyl)amino]-2(R)-methyl-3-oxopropyl]-5R-methyl-4S-oxazolecarboxamide], the “solubility (in words)” value [1] was “limited solubility”, the “statistical significance of prolongation of survival” value ([2]; 160 mg/kg×2 intraperitoneal) was “statistically significant (0.025<p<0.05)” and the survival time [2, 7] was “prolongation of survival time was observed”. For the same compound, the “survival time (summary)” value ([2]; intraperitoneal) was “did prolong the survival time; also recorded: increases survival time”, the “statistical significance of prolonged survival (summary)” value ([2]; intraperitoneal, two Pasteurella tests) was “statistically significant at one level in two Pasteurella tests” and the survival time [3, 7] was “prolongation of survival time was observed”. For the same compound, the “survival time (summary)” value ([3]; intraperitoneal) was “did prolong the survival time”, the “effectiveness of combined therapy vs erythromycin alone” value [4] was “slightly more effective than erythromycin alone” and the synergism with erythromycin [4] was “not to a degree considered to be synergistic”. For the same compound, the sensitivity of strain [5] was “sensitive”, the sensitivity of strain ([6]; agar dilution) was “sensitive” and the “relative activity, acetyl derivative vs parent compound” value ([6]; from MIC) was “equal activity”.
